The values that follow come from patent US20250025443A1, “COMPOUNDS AND METHODS FOR TREATING CORONA VIRUSES” (CLEAR CREEK BIO, INC., priority 2021, published 2025).

pIC50: −log10 of the molar value.

In the first assay the target is SARS-CoV-2 Papain-Like Protease (PLpro) (Severe acute respiratory syndrome coronavirus 2 (2019-nCoV) (SARS-CoV-2), UniProt P0DTD1). Kind of assay: biochemical. Conditions: PLpro enzymatic fluorescence assay; class symbols; read-out: PLpro IC50.
On to `Cc1ccc(OCCN(C)C)cc1C(=O)NC1(c2cccc(O)c2)CC1` [Compound 306, 5-(2-(Dimethylamino)ethoxy)-N-(1-(3-hydroxyphenyl)cyclopropyl)-2-methylbenzamide], for which the pIC50 (in general, the IC50 on a negative log10 scale, so that one unit is a factor of ten) is under 5.30.

The assay is the same for the next values; noted with them: SARS-CoV-2 PLpro enzymatic fluorescence assay; read-out: PLpro IC50.
Consider `Cc1ccc(OCCN(C)C)cc1C(=O)NC1(c2cccc3cnccc23)CC1` [Compound 299, 5-(2-(Dimethylamino)ethoxy)-N-(1-(isoquinolin-5-yl)cyclopropyl)-2-methylbenzamide], for which the pIC50 is over 7.00.
As to `Cc1ccc(OCCN2CC(F)C2)cc1C(=O)NC1(c2cccc3ccccc23)CC1` [Compound 300, 5-(2-(3-Fluoroazetidin-1-yl)ethoxy)-2-methyl-N-(1-(naphthalen-1-yl)cyclopropyl)benzamide], the pIC50 was over 7.00.
For the compound `Cc1ccc(OCCN(C)C)cc1C(=O)NC1(c2cccc3ncccc23)CC1` [Compound 301, 5-(2-(Dimethylamino)ethoxy)-2-methyl-N-(1-(quinolin-5-yl)cyclopropyl)benzamide], the pIC50 is over 7.00.
Same read-out and setting: the figure for `Cc1ccc(OCC2COCCN2C)cc1C(=O)NC1(c2cccc3ccccc23)CC1` (centres unmarked) [Compound 302, 2-Methyl-5-((4-methylmorpholin-3-yl)methoxy)-N-(1-(naphthalen-1-yl)cyclopropyl)benzamide] is 6.00 to 7.00; for `COc1ccc(OCCN(C)C)cc1C(=O)NC1(c2cccc3ccccc23)CC1` [Compound 303, 5-(2-(Dimethylamino)ethoxy)-2-methoxy-N-(1-(naphthalen-1-yl)cyclopropyl)benzamide] it is under 5.30.
On to `Cc1cc2cnn(C3CNC3)c2cc1C(=O)NC1(c2cccc3ccccc23)CC1` [Compound 304, 1-(Azetidin-3-yl)-5-methyl-N-(1-(naphthalen-1-yl)cyclopropyl)-1H-indazole-6-carboxamide], for which the pIC50 is over 7.00.
On to `Cc1cc2cn(C3CNC3)nc2cc1C(=O)NC1(c2cccc3ccccc23)CC1` [Compound 305, 2-(Azetidin-3-yl)-5-methyl-N-(1-(naphthalen-1-yl)cyclopropyl)-2H-indazole-6-carboxamide], for which the pIC50 is 6.00 to 7.00.
On the same count and under the same terms, the value for `Cc1ccc(OCCN(C)C)cc1C(=O)NC1(c2ccc(OCc3ccccc3)cc2)CC1` [Compound 307, N-(1-(4-(Benzyloxy)phenyl)cyclopropyl)-5-(2-(dimethylamino)ethoxy)-2-methylbenzamide] was under 5.30; that for `Cc1ccc(OCCN(C)C)cc1C(=O)NC1(c2cccc(OCc3ccccc3)c2)CC1` [Compound 308, N-(1-(3-(Benzyloxy)phenyl)cyclopropyl)-5-(2-(dimethylamino)ethoxy)-2-methylbenzamide] was under 5.30.
On the same count and under the same terms, the value for `Cc1ccc(OC[C@H]2CCN2C)cc1C(=O)NC1(c2cccc3ccccc23)CC1` [Compound 309, (R)-2-Methyl-5-((1-methylazetidin-2-yl)methoxy)-N-(1-(naphthalen-1-yl)cyclopropyl)benzamide] was over 7.00; that for `Cc1ccc(OC[C@@H]2CCN2C)cc1C(=O)NC1(c2cccc3ccccc23)CC1` [Compound 310, (S)-2-Methyl-5-((1-methylazetidin-2-yl)methoxy)-N-(1-(naphthalen-1-yl)cyclopropyl)benzamide] was over 7.00; that for `Cc1ccc(OCCN(C)C)c(F)c1C(=O)NC1(c2cccc3ccccc23)CC1` [Compound 311, 3-(2-(Dimethylamino)ethoxy)-2-fluoro-6-methyl-N-(1-(naphthalen-1-yl)cyclopropyl)benzamide] was 6.00 to 7.00.
Consider `Cc1ccc(CC(N)=O)cc1C(=O)NC1(c2cccc3ccccc23)CC1` [Compound 312, 5-(2-Amino-2-oxoethyl)-2-methyl-N-(1-(naphthalen-1-yl)cyclopropyl)benzamide], for which the pIC50 was 6.00 to 7.00.
Consider `Cc1ccc(CC#N)cc1C(=O)NC1(c2cccc3ccccc23)CC1` [Compound 313, 5-(Cyanomethyl)-2-methyl-N-(1-(naphthalen-1-yl)cyclopropyl)benzamide], for which the pIC50 was 6.00 to 7.00.
Same read-out and setting: the value for `CCN1CCC1COc1ccc(C)c(C(=O)NC2(c3cccc4ccccc34)CC2)c1` (centres unmarked) [Compound 314, 5-((1-Ethylazetidin-2-yl)methoxy)-2-methyl-N-(1-(naphthalen-1-yl)cyclopropyl)benzamide] was over 7.00; that for `Cc1ccc(OCCNc2ccccc2)cc1C(=O)NC1(c2cccc3ccccc23)CC1` [Compound 315, 2-Methyl-N-(1-(naphthalen-1-yl)cyclopropyl)-5-(2-(phenylamino)ethoxy)benzamide] was 5.30 to 6.00; that for `Cc1ccc(OCCCN)cc1C(=O)NC1(c2cccc3ccccc23)CC1` [Compound 316, 5-(3-Aminopropoxy)-2-methyl-N-(1-(naphthalen-1-yl)cyclopropyl)benzamide] was 6.00 to 7.00.
Same read-out and setting: the value for `Cc1ccc(OCCN(C)C)cc1C(=O)NC1(c2cccc(C)c2Br)CC1` [Compound 317, N-(1-(2-Bromo-3-methylphenyl)cyclopropyl)-5-(2-(dimethylamino)ethoxy)-2-methylbenzamide] was 6.00 to 7.00.
In the case of `Cc1ccc(OCCN(C)C)cc1C(=O)NC1(c2cccc(C)c2C)CC1` [Compound 318, 5-(2-(Dimethylamino)ethoxy)-N-(1-(2,3-dimethylphenyl)cyclopropyl)-2-methylbenzamide], the pIC50 was 5.30 to 6.00.
Same read-out and setting: the value for `Cc1ccc(OCCN(C)C)cc1C(=O)NC1(c2cccc3cc(F)ccc23)CC1` [Compound 319, 5-(2-(Dimethylamino)ethoxy)-N-(1-(6-fluoronaphthalen-1-yl)cyclopropyl)-2-methylbenzamide] was over 7.00; that for `COc1cc(C2(NC(=O)c3cc(OCCN(C)C)ccc3C)CC2)c2ccccc2c1` [Compound 320, 5-(2-(Dimethylamino)ethoxy)-N-(1-(3-methoxynaphthalen-1-yl)cyclopropyl)-2-methylbenzamide] was over 7.00.
Turning to `Cc1ccc(OCCN(C)C)cc1C(=O)NC1(c2ccccc2C(F)(F)F)CC1` [Compound 321, 5-(2-(Dimethylamino)ethoxy)-2-methyl-N-(1-(2-(trifluoromethyl)phenyl)cyclopropyl)benzamide], the pIC50 was 6.00 to 7.00.
On the same count and under the same terms, the value for `Cc1ccc(OCC(N)Cc2ccccc2)cc1C(=O)NC1(c2cccc3ccccc23)CC1` (centres unmarked) [Compound 322, 5-(2-Amino-3-phenylpropoxy)-2-methyl-N-(1-(naphthalen-1-yl)cyclopropyl)benzamide] was over 7.00; that for `Cc1ccc(OCC2CCN2C(C)C)cc1C(=O)NC1(c2cccc3ccccc23)CC1` (centres unmarked) [Compound 323, 5-((1-Isopropylazetidin-2-yl)methoxy)-2-methyl-N-(1-(naphthalen-1-yl)cyclopropyl)benzamide] was over 7.00; that for `Cc1ccc(OCC(C)N)cc1C(=O)NC1(c2cccc3ccccc23)CC1` (centres unmarked) [Compound 324, 5-(2-Aminopropoxy)-2-methyl-N-(1-(naphthalen-1-yl)cyclopropyl)benzamide] was over 7.00.
Take `Cc1ccc(OCCN(C)C)cc1C(=O)NC1(c2cccc(-c3ccsc3)c2)CC1` [Compound 325, 5-(2-(Dimethylamino)ethoxy)-2-methyl-N-(1-(3-(thiophen-3-yl)phenyl)cyclopropyl)benzamide]: the pIC50 is 6.00 to 7.00.
On to `Cc1ccc(OCCN(C)C)cc1C(=O)NC1(c2ccccc2Cl)CC1` [Compound 326, N-(1-(2-chlorophenyl)cyclopropyl)-5-(2-(dimethylamino)ethoxy)-2-methylbenzamide], for which the pIC50 is 5.30 to 6.00.
The same measure, in the same setting: the figure for `Cc1ccc(OCCN(C)C)cc1C(=O)NC1(c2ccccc2OCc2ccccc2)CC1` [Compound 327, N-(1-(2-(Benzyloxy)phenyl)cyclopropyl)-5-(2-(dimethylamino)ethoxy)-2-methylbenzamide] is 5.30 to 6.00.
Take `Cc1ccc(OCCN(C)C)cc1C(=O)NC1(c2cccc3c2CCCC3)CC1` [Compound 329, 5-(2-(Dimethylamino)ethoxy)-2-methyl-N-(1-(5,6,7,8-tetrahydronaphthalen-1-yl)cyclopropyl)benzamide]: the pIC50 was 6.00 to 7.00.
Turning to `Cc1ccc(OCC2CCN2Cc2ccccc2)cc1C(=O)NC1(c2cccc3ccccc23)CC1` (centres unmarked) [Compound 330, 5-((1-Benzylazetidin-2-yl)methoxy)-2-methyl-N-(1-(naphthalen-1-yl)cyclopropyl)benzamide], the pIC50 is over 7.00.
On the same count and under the same terms, the value for `Cc1ccc(OCC2CCN2c2ccccc2)cc1C(=O)NC1(c2cccc3ccccc23)CC1` (centres unmarked) [Compound 331, 2-Methyl-N-(1-(naphthalen-1-yl)cyclopropyl)-5-((1-phenylazetidin-2-yl)methoxy)benzamide] was under 5.30; that for `Cc1ccc(OCC2CCN2CC2CC2)cc1C(=O)NC1(c2cccc3ccccc23)CC1` (centres unmarked) [Compound 332, 5-((1-(Cyclopropylmethyl)azetidin-2-yl)methoxy)-2-methyl-N-(1-(naphthalen-1-yl)cyclopropyl)benzamide] was over 7.00.
Still for that read-out and setting: the figure for `Cc1ccc(OCCN(C)C)cc1C(=O)NC1(c2cccc3ccncc23)CC1` [Compound 333, 5-(2-(Dimethylamino)ethoxy)-N-(1-(isoquinolin-8-yl)cyclopropyl)-2-methylbenzamide] is 6.00 to 7.00; for `Cc1cc2c3c([nH]c2cc1C(=O)NC1(c2cccc4ccccc24)CC1)C(=O)CC3` [Compound 334, 7-Methyl-N-(1-(naphthalen-1-yl)cyclopropyl)-3-oxo-1,2,3,4-tetrahydrocyclopenta[b]indole-6-carboxamide] it is 5.30 to 6.00.
Turning to `Cc1ccc(OCCN(C)C)cc1C(=O)NC1(c2cccc(Cl)c2Cl)CC1` [Compound 335, N-(1-(2,3-Dichlorophenyl)cyclopropyl)-5-(2-(dimethylamino)ethoxy)-2-methylbenzamide], the pIC50 was 6.00 to 7.00.
Still for that read-out and setting: the figure for `Cc1ccc(OCCN(C)C)cc1C(=O)NC1(c2cccc(Br)c2C)CC1` [Compound 336, N-(1-(3-Bromo-2-methylphenyl)cyclopropyl)-5-(2-(dimethylamino)ethoxy)-2-methylbenzamide] is 6.00 to 7.00; for `C#Cc1ccc(OCCN(C)C)cc1C(=O)NC1(c2cccc3ccccc23)CC1` [Compound 337, 5-(2-(Dimethylamino)ethoxy)-2-ethynyl-N-(1-(naphthalen-1-yl)cyclopropyl)benzamide] it is under 5.30.
